# Reference: patent US8048879B2, “Substituted 4,5,6,7-tetrahydro-isoxazolo[4,5-c]pyridine compounds and use thereof for producing medicaments” (Gruenenthal GmbH, priority 2005, dated 2011)
# Molecular target: T1, 5-HT transporter (Rattus norvegicus, UniProt P31652)
# T1 construct: from tissue; host or cells: rat brain (medulla and pons), synaptosomes, P2 fraction
# Experiment: 5-HT uptake inhibition, synaptosomes from rat brain (medulla and pons)
# Assay type: biochemical
# Conditions: not given
# Excerpt: b) Method for Determining Noradrenalin and 5-HT Uptake Inhibition:
# Synaptosomes from rat brain regions are freshly isolated for in vitro studies, as described in the publication “The isolation of nerve endings from brain” by E. G. Gray and V. P. Whittaker, J. Anatomy 96, pages 79-88, 1962. The corresponding literature description is hereby introduced as a reference and is deemed to be part of the disclosure.
# The tissue (hypothalamus for the determination of noradrenalin uptake inhibition and medulla and pons for the determination of 5-HT uptake inhibition) is homogenised in ice-cooled 0.32 M sucrose (100 mg of tissue/1 mL) in a glass homogeniser with Teflon pestle using five complete up and down strokes at 840 revolutions/minute.
# The homogenate is centrifuged at 4° C. for 10 minutes at 1000 g. After subsequent centrifugation at 17000 g for 55 minutes, the synaptosomes (P2 fraction) are obtained, which are resuspended in 0.32 M […] (0.5 mL/100 mg of original weight).
# The particular uptake is measured in a 96-well microtitre plate. The volume is 250 μL and the incubation proceeds at room temperature (approx. 20-25° C.) under an O2 atmosphere.
# The incubation time is 7.5 minutes for [^3H]-NA and 5 minutes for [^3H]-5-HT. The 96 samples are then filtered through a Unifilter GF/B® microtitre plate (Packard) and washed with 200 mL of incubated buffer using a “Brabdel MPXRI-96T Cell-Harvester”. The Unifilter GF/B plate is dried for 1 hour at 55° C. The plate is then sealed with a Back Seal® (Packard) and 35 μL of scintillation fluid are added per well (Ultima Gold®, Packard). After sealing with a top Seal® (Packard) and establishing an equilibrium (around 5 hours), radioactivity is determined in a “Trilux 1450 Microbeta” (Wallac).
# The quantity of protein used in the above determination corresponds to the values known from the literature, as for example described in “Protein measurement with the folin phenol reagent”, Lowry et al., J. Biol. Chem., 193, 265-275, 1951.
# A detailed description of the method may additionally be found in the literature, for example in M. Ch. Frink, H.-H. Hennies, W. Engelberger, M. Haurand and B. Wilffert (1996) Arzneim.-Forsch./Drug Res. 46 (III), 11, 1029-1036.
# The following characteristics were determined for the NA or 5-HT transporter: […]
# T1 sequence (P31652 whole entry): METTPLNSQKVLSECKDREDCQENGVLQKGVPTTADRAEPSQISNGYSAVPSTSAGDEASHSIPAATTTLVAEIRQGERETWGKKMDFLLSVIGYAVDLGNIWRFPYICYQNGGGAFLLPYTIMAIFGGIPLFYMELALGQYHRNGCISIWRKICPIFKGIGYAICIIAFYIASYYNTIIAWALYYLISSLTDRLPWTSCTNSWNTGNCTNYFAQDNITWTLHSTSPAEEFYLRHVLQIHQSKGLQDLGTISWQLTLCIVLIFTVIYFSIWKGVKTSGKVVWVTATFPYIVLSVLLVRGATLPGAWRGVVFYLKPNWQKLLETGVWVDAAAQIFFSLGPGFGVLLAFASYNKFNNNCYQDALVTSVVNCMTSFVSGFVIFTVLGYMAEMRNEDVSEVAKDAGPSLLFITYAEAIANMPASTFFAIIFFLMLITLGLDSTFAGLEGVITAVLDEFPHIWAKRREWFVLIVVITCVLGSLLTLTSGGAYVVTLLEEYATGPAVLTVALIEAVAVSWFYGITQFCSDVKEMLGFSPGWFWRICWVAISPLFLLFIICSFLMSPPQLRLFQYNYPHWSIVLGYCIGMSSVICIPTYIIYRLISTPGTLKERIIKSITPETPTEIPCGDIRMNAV
SMILES,inhibition at 10 µM [%],"5-HT uptake (rat), 10 μM, % inhibition [%]"
"CN(C)CCNC(=O)c1noc2c1CN(C(=O)c1cc(C(C)(C)C)nn1C)CC2 [Example 41, 5-(5-tert-butyl-2-methyl-2H-pyrazole-3-carbonyl)-4,5,6,7-tetrahydro-isoxazolo[4,5-c]pyridine-3-carboxylic acid (2-dimethylamino-ethyl) amide]",76,–
"O=C(c1noc2c1CN(S(=O)(=O)c1ccc(F)cc1)CC2)N1CC=C(c2ccc(F)cc2)CC1 [Example 42, [5-(4-fluoro-benzenesulfonyl)-4,5,6,7-tetrahydro-isoxazolo[4,5-c]pyridin-3-yl]-[4-(4-fluorophenyl)-3,6-dihydro-2H-pyridin-1-yl]-methanone]",69,–
"CC(=O)Nc1ccc(C(=O)N2CCc3onc(C(=O)NCC4CC4)c3C2)cc1 [Example 45, 5-(4-acetylamino-benzoyl)-4,5,6,7-tetrahydro-isoxazolo[4,5-c]pyridine-3-carboxylic acid cyclopropylmethyl amide]",85,–
"Cc1nn(-c2ccccc2)nc1C(=O)N1CCc2onc(C(=O)NCc3cccnc3)c2C1 [Example 46, 5-(5-methyl-2-phenyl-2H-[1,2,3]triazole-4-carbonyl)-4,5,6,7-tetrahydro-isoxazolo[4,5-c]pyridine-3-carboxylic acid (pyridin-3-ylmethyl) amide]",79,–
"O=C(NCCc1ccccc1Cl)c1noc2c1CN(S(=O)(=O)c1cc(Cl)ccc1Cl)CC2 [Example 52, 5-(2,5-dichloro-benzenesulfonyl)-4,5,6,7-tetrahydro-isoxazolo[4,5-c]pyridine-3-carboxylic acid [2-(2-chlorophenyl)-ethyl] amide]",83,–
"COc1ccc(S(=O)(=O)N2CCc3onc(C(=O)Nc4ccc(C)cc4)c3C2)cc1 [Example 53, 5-(4-methoxy-benzenesulfonyl)-4,5,6,7-tetrahydro-isoxazolo[4,5-c]pyridine-3-carboxylic acid p-tolyl amide]",89,–
"O=C(NCc1ccc(F)cc1)c1noc2c1CN(C(=O)COc1ccccc1)CC2 [Example 54, 5-(2-phenoxy-acetyl)-4,5,6,7-tetrahydro-isoxazolo[4,5-c]pyridine-3-carboxylic acid 4-fluorobenzyl amide]",84,–
"COc1ccc(S(=O)(=O)N2CCc3onc(C(=O)N4CCN(C(C)=O)CC4)c3C2)cc1 [Example 55, 1-{4-[5-(4-methoxy-benzenesulfonyl)-4,5,6,7-tetrahydro-isoxazolo[4,5-c]pyridine-3-carbonyl]-piperazin-1-yl}-ethanone]",68,–
"O=C(NCCN1CCOCC1)c1noc2c1CN(S(=O)(=O)c1cccs1)CC2 [Example 57, 5-(thiophene-2-sulfonyl)-4,5,6,7-tetrahydro-isoxazolo[4,5-c]pyridine-3-carboxylic acid (2-morpholin-4-yl-ethyl) amide]",63,–
"COc1ccc(C(=O)N2CCc3onc(C(=O)NCCN(C)C)c3C2)cc1 [Example 58, 5-(4-methoxy-benzoyl)-4,5,6,7-tetrahydro-isoxazolo[4,5-c]pyridine-3-carboxylic acid (2-dimethylamino-ethyl) amide]",81,–
"CC1C(NC(=O)c2noc3c2CN(S(=O)(=O)N(C)C)CC3)CC2CC1C2(C)C (stereo not shown) [Example 60, 5-dimethylsulfamoyl-4,5,6,7-tetrahydro-isoxazolo[4,5-c]pyridine-3-carboxylic acid (2,6,6-trimethyl-bicyclo[3.1.1]hept-3-yl) amide]",81,–
"O=C(NC1CCc2ccccc21)c1noc2c1CN(S(=O)(=O)c1ccccc1)CC2 (stereo not shown) [Example 61, 5-benzenesulfonyl-4,5,6,7-tetrahydro-isoxazolo[4,5-c]pyridine-3-carboxylic acid indan-1-yl amide]",64,–
"COCCCNC(=O)c1noc2c1CN(S(=O)(=O)c1ccc(OC)cc1)CC2 [Example 62, 5-(4-methoxy-benzenesulfonyl)-4,5,6,7-tetrahydro-isoxazolo[4,5-c]pyridine-3-carboxylic acid (3-methoxy-propyl) amide]",67,–
"O=C(NCCN1CCCC1)c1noc2c1CN(C(=O)COCc1ccccc1)CC2 [Example 64, 5-(2-benzyloxy-acetyl)-4,5,6,7-tetrahydro-isoxazolo[4,5-c]pyridine-3-carboxylic acid (2-pyrrolidin-1-yl-ethyl) amide]",77,–
"Cc1ccc(N2CCN(C(=O)c3noc4c3CN(S(=O)(=O)c3cc(Cl)ccc3Cl)CC4)CC2)c(C)c1 [Example 65, [5-(2,5-dichloro-benzenesulfonyl)-4,5,6,7-tetrahydro-isoxazolo[4,5-c]pyridin-3-yl]-[4-(2,4-dimethyl-phenyl)-piperazin-1-yl]-methanone]",88,–
"C=CCCC(=O)N1CCc2onc(C(=O)NCC3CC3)c2C1 [Example 66, 5-Pent-4-enoyl-4,5,6,7-tetrahydro-isoxazolo[4,5-c]pyridine-3-carboxylic acid cyclopropylmethyl amide]",62,–
"CC(C)C(NC(=O)c1noc2c1CN(S(=O)(=O)c1cccc(C(F)(F)F)c1)CC2)C(=O)OC(C)(C)C (stereo not shown) [Example 67, 3-methyl-2-{[5-(3-trifluoromethyl-benzenesulfonyl)-4,5,6,7-tetrahydro-isoxazolo[4,5-c]pyridine-3-carbonyl]-amino}-butanoic acid tert-butyl ester]",73,–
"O=C(NCc1ccc(Cl)cc1Cl)c1noc2c1CN(S(=O)(=O)c1cccc(C(F)(F)F)c1)CC2 [Example 69, 5-(3-trifluoromethyl-benzenesulfonyl)-4,5,6,7-tetrahydro-isoxazolo[4,5-c]pyridine-3-carboxylic acid 2,4-dichloro-benzyl amide]",64,–
"CN(C)S(=O)(=O)N1CCc2onc(C(=O)N(CCC#N)Cc3cccnc3)c2C1 [Example 70, 5-dimethylsulfamoyl-4,5,6,7-tetrahydro-isoxazolo[4,5-c]pyridine-3-carboxylic acid (2-cyano-ethyl)-pyridin-3-ylmethyl-amide]",63,–
"O=C(NCCN1CCCC1)c1noc2c1CN(C(=O)CC1CCCC1)CC2 [Example 71, 5-(2-cyclopentyl-acetyl)-4,5,6,7-tetrahydro-isoxazolo[4,5-c]pyridine-3-carboxylic acid (2-pyrrolidin-1-yl-ethyl) amide]",69,–
"Cc1nn(-c2ccccc2)nc1C(=O)N1CCc2onc(C(=O)NCc3ccc(F)cc3)c2C1 [Example 72, 5-(5-methyl-2-phenyl-2H-[1,2,3]triazole-4-carbonyl)-4,5,6,7-tetrahydro-isoxazolo[4,5-c]pyridine-3-carboxylic acid 4-fluorobenzyl amide]",70,–
CCCCC(CC)CNC(=O)c1noc2c1CN(S(=O)(=O)c1cccc(C(F)(F)F)c1)CC2 (stereo not shown) [Example 73],–,63
Cc1ccc(C(=O)N2CCc3onc(C(=O)NCCN(C)C)c3C2)c(F)c1F [Example 74],–,62
"O=C(NCc1cccc(Cl)c1Cl)c1noc2c1CN(S(=O)(=O)c1ccc(OC(F)(F)F)cc1)CC2 [Example 75, 5-(4-trifluoromethoxy-benzenesulfonyl)-4,5,6,7-tetrahydro-isoxazolo[4,5-c]pyridine-3-carboxylic acid 2,3-dichloro-benzyl amide]",65,–
"CN(C)S(=O)(=O)N1CCc2onc(C(=O)NCCc3ccc(Cl)cc3)c2C1 [Example 76, 5-dimethylsulfamoyl-4,5,6,7-tetrahydro-isoxazolo[4,5-c]pyridine-3-carboxylic acid [2-(4-chlorophenyl)-ethyl] amide]",63,–
"O=C(NCCN1CCCC1)c1noc2c1CN(C(=O)c1ccc(Cl)nc1)CC2 [Example 77, 5-(6-chloro-pyridine-3-carbonyl)-4,5,6,7-tetrahydro-isoxazolo[4,5-c]pyridine-3-carboxylic acid (2-pyrrolidin-1-yl-ethyl) amide]",62,–
"COC(=O)CCCC(=O)N1CCc2onc(C(=O)NCc3ccc(F)cc3)c2C1 [Example 78, 5-[3-(4-fluoro-benzylcarbamoyl)-6,7-dihydro-4H-isoxazolo[4,5-c]pyridin-5-yl]-5-oxo-pentanoic acid methyl ester]",70,–

# Same assay, conditions: 10 µM
row,SMILES,"5-HT uptake (rat), 10 μM, % inhibition [%]"
1,"Cc1ccc(S(=O)(=O)N2CCc3onc(C(=O)NCc4ccc(S(N)(=O)=O)cc4)c3C2)cc1 [Example 56, 5-(toluene-4-sulfonyl)-4,5,6,7-tetrahydro-isoxazolo[4,5-c]pyridine-3-carboxylic acid 4-sulfamoyl-benzyl amide]",96
